According to ChEMBL document CHEMBL3588817, “Discovery of 4,5,6,7-Tetrahydrobenzo[1,2-d]thiazoles as Novel DNA Gyrase Inhibitors Targeting the ATP-Binding Site” (J Med Chem, 2015):
pIC50: −log10 of the molar value. Converted amounts (≈) assume the structure as drawn.

Legend:
Pseudomonas aeruginosa [1] = experiment: Antibacterial activity against Pseudomonas aeruginosa ATCC 27853 assessed as inhibition of microbial growth by broth microdilution method; format: functional
Escherichia coli [2] = experiment: Antibacterial activity against wild type Escherichia coli ATCC 25922 assessed as inhibition of microbial growth at 50 uM by broth microdilution method; format: functional; conditions: read-out: GI
Enterococcus faecalis [3] = experiment: Antibacterial activity against Enterococcus faecalis ATCC 29212 assessed as inhibition of microbial growth by broth microdilution method; format: functional
Escherichia coli [4] = experiment: Antibacterial activity against wild type Escherichia coli ATCC 25922 by broth microdilution method; format: functional
Enterococcus faecalis [5] = experiment: Antibacterial activity against Enterococcus faecalis ATCC 29212 assessed as inhibition of microbial growth at 50 uM by broth microdilution method; format: functional; conditions: read-out: GI
Escherichia coli [6] = experiment: Antibacterial activity against Escherichia coli imp4213::Tn10 by broth microdilution method; format: functional
DNA gyrase = DNA gyrase (Escherichia coli, UniProt P0AES4+P0AES6); experiment: Inhibition of Escherichia coli DNA gyrase using relaxed pNO1 plasmid and biotinylated oligonucelotide incubated for 30 mins by fluorescence based DNA super-coiling assay; format: protein-complex assay
Escherichia coli [7] = experiment: Antibacterial activity against efflux deficient Escherichia coli tolC::Tn10 lacking functional tolC gene by broth microdilution method
Escherichia coli [8] = experiment: Antibacterial activity against wild type Escherichia coli ATCC 25922 assessed as inhibition of microbial growth by broth microdilution method; format: functional
Staphylococcus aureus [9] = experiment: Antibacterial activity against Staphylococcus aureus 25923 assessed as inhibition of microbial growth at 50 uM by broth microdilution method; format: functional; conditions: read-out: GI
Staphylococcus aureus [10] = experiment: Antibacterial activity against Staphylococcus aureus 25923 assessed as inhibition of microbial growth by broth microdilution method; format: functional
Pseudomonas aeruginosa [11] = experiment: Antibacterial activity against Pseudomonas aeruginosa ATCC 27853 assessed as inhibition of microbial growth at 50 uM by broth microdilution method; format: functional; conditions: read-out: GI
[12] = biological target: DNA gyrase (Staphylococcus aureus) (UniProt P0A0K8+P20831); experiment: Inhibition of Staphylococcus aureus DNA gyrase assessed as residual enzyme activity at 100 uM using relaxed pNO1 plasmid and biotinylated oligonucelotide incubated for 30 mins by fluorescence based DNA super-coiling assay; format: protein-complex assay
Sequence of DNA gyrase (Staphylococcus aureus) (P0A0K8 2-644 limits assumed): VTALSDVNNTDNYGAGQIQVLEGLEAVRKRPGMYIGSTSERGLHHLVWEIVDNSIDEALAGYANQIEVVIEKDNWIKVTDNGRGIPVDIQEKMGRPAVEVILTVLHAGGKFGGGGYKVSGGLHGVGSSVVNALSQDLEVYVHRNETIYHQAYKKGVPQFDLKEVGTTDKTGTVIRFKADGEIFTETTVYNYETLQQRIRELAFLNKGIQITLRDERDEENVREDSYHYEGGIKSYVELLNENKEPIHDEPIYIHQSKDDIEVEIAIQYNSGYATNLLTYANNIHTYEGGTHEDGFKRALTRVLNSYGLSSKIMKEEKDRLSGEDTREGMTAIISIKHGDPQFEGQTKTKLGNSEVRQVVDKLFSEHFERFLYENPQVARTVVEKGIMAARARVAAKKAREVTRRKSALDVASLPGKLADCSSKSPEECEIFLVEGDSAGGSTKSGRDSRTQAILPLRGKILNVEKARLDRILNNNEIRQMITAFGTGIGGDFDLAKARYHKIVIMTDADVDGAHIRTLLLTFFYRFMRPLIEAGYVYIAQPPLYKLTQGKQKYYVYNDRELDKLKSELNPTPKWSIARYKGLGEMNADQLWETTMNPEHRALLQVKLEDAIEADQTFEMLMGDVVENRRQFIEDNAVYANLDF
Sequence of DNA gyrase (Staphylococcus aureus) (P20831 whole entry partner): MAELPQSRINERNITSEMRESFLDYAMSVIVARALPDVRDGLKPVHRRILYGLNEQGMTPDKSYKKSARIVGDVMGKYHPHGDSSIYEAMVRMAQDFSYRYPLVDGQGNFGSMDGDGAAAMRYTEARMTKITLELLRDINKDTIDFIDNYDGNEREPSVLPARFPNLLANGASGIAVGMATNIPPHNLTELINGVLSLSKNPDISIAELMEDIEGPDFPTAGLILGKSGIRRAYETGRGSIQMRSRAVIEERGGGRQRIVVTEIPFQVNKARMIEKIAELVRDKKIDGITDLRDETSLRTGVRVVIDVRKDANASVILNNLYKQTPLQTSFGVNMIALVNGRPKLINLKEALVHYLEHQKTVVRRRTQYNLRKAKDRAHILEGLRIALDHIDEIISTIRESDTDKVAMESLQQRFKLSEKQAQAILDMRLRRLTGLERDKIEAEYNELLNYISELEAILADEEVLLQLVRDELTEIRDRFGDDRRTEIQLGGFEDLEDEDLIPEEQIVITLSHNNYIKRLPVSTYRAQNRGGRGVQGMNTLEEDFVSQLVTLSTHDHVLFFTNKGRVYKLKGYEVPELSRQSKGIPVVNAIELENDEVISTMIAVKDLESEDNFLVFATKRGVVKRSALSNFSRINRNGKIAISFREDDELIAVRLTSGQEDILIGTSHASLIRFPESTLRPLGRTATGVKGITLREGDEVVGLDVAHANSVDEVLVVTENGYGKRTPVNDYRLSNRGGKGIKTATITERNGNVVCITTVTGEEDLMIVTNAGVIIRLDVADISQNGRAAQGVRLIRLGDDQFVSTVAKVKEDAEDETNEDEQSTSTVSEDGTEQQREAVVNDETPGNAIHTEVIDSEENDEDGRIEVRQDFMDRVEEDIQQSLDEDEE

Escherichia coli [13] = experiment: Inhibition of Escherichia coli DNA topoisomerase 4 assessed as residual enzyme activity at 100 uM using relaxed pNO1 plasmid and biotinylated oligonucelotide incubated for 30 mins by fluorescence based DNA relaxation assay
[14] = biological target: Topoisomerase IV (Staphylococcus aureus) (UniProt P0C1U9+P0C1S7); experiment: Inhibition of Staphylococcus aureus DNA topoisomerase 4 assessed as residual enzyme activity at 100 uM using relaxed pNO1 plasmid and biotinylated oligonucelotide incubated for 30 mins by fluorescence based DNA relaxation assay; format: protein-complex assay

Row | Structure (SMILES) | MIC (Pseudomonas aeruginosa [1]) | inhibition of growth at 50 µM (Escherichia coli [2]) | MIC (Enterococcus faecalis [3]) | MIC (Escherichia coli [4]) | inhibition of growth at 50 µM (Enterococcus faecalis [5]) | MIC (Escherichia coli [6]) | pIC50 (DNA gyrase) | MIC (Escherichia coli [7]) | MIC (Escherichia coli [8]) | inhibition of growth at 50 µM (Staphylococcus aureus [9]) | MIC (Staphylococcus aureus [10]) | inhibition of growth at 50 µM (Pseudomonas aeruginosa [11]) | Activity [12] | Activity (Escherichia coli [13]) | Activity [14]
1 | Nc1nc2c(s1)C[C@@H](NC(=O)c1cc3cc(F)ccc3[nH]1)CC2 | > 125 µM | < 50% | > 125 µM | > 256 µg/mL | < 50% | > 256 µg/mL | 3.57 | > 256 µg/mL | > 125 µM | < 50% | > 125 µM | < 50% | – | – | –
2 | O=C1CCN2C(=N1)SC1=C2CC[C@H](NC(=O)c2cc(Br)c(Br)[nH]2)C1 | > 125 µM | < 50% | > 125 µM | > 256 µg/mL | < 50% | > 256 µg/mL | 4.92 | > 256 µg/mL | > 125 µM | < 50% | > 125 µM | < 50% | – | – | –
3 | COC(=O)CC(=O)Nc1nc2c(s1)C[C@@H](NC(=O)c1cc(Br)c[nH]1)CC2 | > 125 µM | < 50% | > 125 µM | – | < 50% | – | 4.60 | – | > 125 µM | < 50% | > 125 µM | < 50% | 100% | 95% | 104%
4 | O=C(O)CCC(=O)Nc1nc2c(s1)C[C@@H](NC(=O)c1cc3ccccc3[nH]1)CC2 | > 125 µM | < 50% | > 125 µM | > 256 µg/mL | < 50% | > 256 µg/mL | 5.09 | > 256 µg/mL | > 125 µM | < 50% | > 125 µM | < 50% | 95% | 99% | 79%
5 | Nc1nc2c(s1)C[C@@H](NC(=O)c1cc(Br)c[nH]1)CC2 | > 125 µM | < 50% | > 125 µM | – | < 50% | – | 3.28 | – | > 125 µM | < 50% | > 125 µM | < 50% | – | – | –
6 | COC(=O)CCC(=O)Nc1nc2c(s1)C[C@@H](NC(=O)c1cc(Cl)c(Cl)[nH]1)CC2 | > 125 µM | < 50% | > 125 µM | > 256 µg/mL | < 50% | > 256 µg/mL | 6.05 | > 256 µg/mL | > 125 µM | < 50% | > 125 µM | < 50% | 86% | 100% | 93%
7 | Nc1ncc2c(n1)CCC(CNC(=O)c1cc(Br)c(Br)[nH]1)C2 (configuration not stated) | – | – | – | – | – | – | 3.77 | – | – | – | – | – | – | – | –
8 | COC(=O)CC(=O)Nc1nc2c(s1)C[C@@H](NC(=O)c1cc3ccccc3[nH]1)CC2 | > 125 µM | < 50% | > 125 µM | > 256 µg/mL | < 50% | > 256 µg/mL | 4.46 | > 256 µg/mL | > 125 µM | < 50% | > 125 µM | < 50% | – | – | –
9 | Nc1nc2c(s1)C[C@H](NC(=O)c1cc(Br)c(Br)[nH]1)CC2 | > 125 µM | < 50% | > 125 µM | > 256 µg/mL | < 50% | 64 µg/mL (≈ 152 µM) | 4.39 | 64 µg/mL (≈ 152 µM) | > 125 µM | < 50% | > 125 µM | < 50% | 118% | 96% | 92%
10 | O=C(O)CC(=O)Nc1nc2c(s1)C[C@@H](NC(=O)c1cc(Br)c[nH]1)CC2 | > 125 µM | < 50% | > 125 µM | – | < 50% | – | 4.85 | – | > 125 µM | < 50% | > 125 µM | < 50% | 110% | 96% | 97%
11 | COC(=O)CCC(=O)Nc1nc2c(s1)C[C@@H](NC(=O)c1cc3ccccc3[nH]1)CC2 | > 125 µM | < 50% | > 125 µM | – | < 50% | – | 5.04 | – | > 125 µM | < 50% | > 125 µM | < 50% | 87% | 101% | 104%
12 | Nc1nc2c(s1)C[C@@H](NC(=O)c1cc3ccccc3[nH]1)CC2 | – | – | – | – | – | – | 4.68 | – | – | – | – | – | 87% | 103% | 100%
13 | Nc1nc2c(s1)CC(CNC(=O)c1cc(Br)c(Br)[nH]1)CC2 (configuration not stated) | – | – | – | – | – | – | 3.92 | – | – | – | – | – | – | – | –
14 | CCOC(=O)C(=O)Nc1nc2c(s1)C[C@@H](NC(=O)c1cc3ccccc3[nH]1)CC2 | > 125 µM | < 50% | > 125 µM | – | < 50% | – | 5.00 | – | > 125 µM | < 50% | > 125 µM | < 50% | 76% | 101% | 99%
15 | Nc1ncc2c(n1)CCC(NC(=O)c1cc(Br)c[nH]1)C2 (configuration not stated) | > 125 µM | < 50% | > 125 µM | – | < 50% | – | 4.46 | – | > 125 µM | < 50% | > 125 µM | < 50% | 100% | 97% | 105%
16 | Nc1ncc2c(n1)CCC(NC(=O)c1cc(Cl)c(Cl)[nH]1)C2 (configuration not stated) | – | – | – | – | – | – | 5.24 | – | – | – | – | – | 90% | 96% | 106%
17 | Nc1ncc2c(n1)CCC(NC(=O)c1cc3ccccc3[nH]1)C2 (configuration not stated) | > 125 µM | < 50% | > 125 µM | – | < 50% | – | 4.54 | – | > 125 µM | < 50% | > 125 µM | < 50% | 119% | 97% | 103%
